# Test results reported in paper PMC7349657, “Efficient Targeted Degradation via Reversible and Irreversible Covalent PROTACs” (Journal of the American Chemical Society, 2020).
# Molecular target: T1, BTK C481S (Homo sapiens, UniProt Q06187, C481S)
# T1 construct: Human wild type BTK full length was obtained from the ORFeome; expressed in transfected cells; host or cells: U2OS (ATCC HTB-96), pCDNA3.1, CMV promoter
# Test: Degradation of overexpressed BTK C481S in transfected U2OS cells
# Format: cell-based
# Settings: overexpressed WT vs C481S BTK, 100 nM, 24 h
# Method: Figure 5 Degradation of overexpressed BTK and BTK C481S in U2OS cells. (A) Transfected U2OS cells were treated with 100 nM PROTAC for 24 h, followed by measuring BTK levels via Western blot. (B) Quantification of normalized BTK levels in (A). TEXT PRINTED IN THE PICTURE: (A) IR-1: BTK % control: 43 (Transfection: BTK-WT; PROTAC 24h [0.1 μM]); BTK % control: 67 (Transfection: BTK-C481S; PROTAC 24h [0.1 μM]) | (A) RC-2: BTK % control: 58 (Transfection: BTK-WT; PROTAC 24h [0.1 μM]); BTK % control: 73 (Transfection: BTK-C481S; PROTAC 24h [0.1 μM]) | (A) IR-2: BTK % control: 41 (Transfection: BTK-WT; PROTAC 24h [0.1 μM]); BTK % control: 62 (Transfection: BTK-C481S; PROTAC 24h [0.1 μM]) | (A) NC-1: BTK % control: 27 (Transfection: BTK-WT; PROTAC 24h [0.1 μM]); BTK % control: 49 (Transfection: BTK-C481S; PROTAC 24h [0.1 μM]) | (A) RC-3: BTK % control: 27 (Transfection: BTK-WT; PROTAC 24h [0.1 μM]); BTK % control: 104 (Transfection: BTK-C481S; PROTAC 24h [0.1 μM]) DOUBTS OF THE COPYIST ABOUT THIS PICTURE: The % control numbers are printed under a Western blot. They are given here as printed results for each compound. The vehicle and untransfected lanes (DMSO 100 and 100, Un 1 and 0) were left out as controls. / Panel B prints no numbers for its bars, so nothing was taken from it.
# Ramos (ATCC, CRL-1596), Mino (ATCC, CRL-3000), or K562 (NCI-60) cell lines were counted and diluted to 10^6 cell/mL, using 1 mL per well in a 24-well plate, and U2OS (ATCC HTB-96) cells overexpressing human BTK WT or C481S mutant were grown using 2 mL in a six-well plate (see Supporting Information). Cells were incubated with 1% DMSO or compound in indicated concentrations for 24 h unless indicated differently, or cells were left untreated. Lysates were prepared as previously described,[29] and samples were measured for total protein quantification by bicinchoninic acid (BCA) assay (#23225 ThermoFisher Scientific) supplemented with 4× loading buffer including 20 mM DTT, heated to 70 °C for 10 min, loaded into 4% SDS-PAGE gel, run for 45 min at 140 mV, then transferred into a nitrocellulose membrane (Biorad) using a Trans-Blot Turbo transfer system (Biorad). The membrane was stained with Ponceau (Sigma) to validate transfer for 10 min in gentle agitation then destained for 1 h with MQ water. The membrane was blocked with Licor blocking buffer (LIC927-70001) for 1 h, washed three times for 5 min with TBS-T, incubated with primary antibody BTK (D3H5) rabbit mAb (CST; 8547 S) overnight (16 h) at 4 °C, washed three times for 5 min with TBS-T, and incubated with primary antibody against β-actin (CST; 3700) for 1 h at 25 °C. Membrane was washed three times for 5 min with TBS-T, incubated with fluorescent secondary antibodies anti-mouse IgG Alexa Fluor 647 (CST: 4410S) and anti-rabbit-IgG IRDye 800(LICOR: 926-32211) for 1 h, then washed three times for 5 min with TBS-T, dried, and immediately imaged and analyzed using Licor Odyssey CLx. Prism (GraphPad) software was used to calculate degradation levels. We used second-order polynomial fits to estimate DC50 and Dmax values.
# Cloning and Over Expression of BTK
# Human wild type BTK full length was obtained from the ORFeome (ref: http://www.orfeomecollaboration.org/), from which the full human BTK gene (clone HsCD00433457) was inserted into the mammalian expression vector pCDNA3.1. In parallel, a mutant BTK C481S was constructed by assemble 2 PCR products harboring the desired mutation and cloned into pCDNA3.1. […]
# T1 sequence (Q06187 whole entry C481S): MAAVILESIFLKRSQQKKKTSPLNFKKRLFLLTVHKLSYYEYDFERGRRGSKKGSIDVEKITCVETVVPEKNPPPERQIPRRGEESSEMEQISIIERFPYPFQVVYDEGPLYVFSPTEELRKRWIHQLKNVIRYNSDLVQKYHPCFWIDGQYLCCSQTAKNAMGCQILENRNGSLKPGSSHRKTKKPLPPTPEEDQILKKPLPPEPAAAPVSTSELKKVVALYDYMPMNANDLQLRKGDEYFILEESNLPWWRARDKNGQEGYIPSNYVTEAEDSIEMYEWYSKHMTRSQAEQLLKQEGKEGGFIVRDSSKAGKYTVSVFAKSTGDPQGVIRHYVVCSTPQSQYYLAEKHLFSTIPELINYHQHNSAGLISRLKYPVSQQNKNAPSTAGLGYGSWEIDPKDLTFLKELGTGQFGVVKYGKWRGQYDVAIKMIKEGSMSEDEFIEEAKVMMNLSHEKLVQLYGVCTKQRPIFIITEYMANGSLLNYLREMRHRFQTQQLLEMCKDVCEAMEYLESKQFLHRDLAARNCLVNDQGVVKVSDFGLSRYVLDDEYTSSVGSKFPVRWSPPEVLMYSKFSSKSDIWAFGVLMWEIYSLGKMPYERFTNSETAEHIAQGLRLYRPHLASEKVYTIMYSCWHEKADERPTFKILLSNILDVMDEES
row,SMILES,sensitivity of degradation to the C481S mutation
1,Nc1ncnc2c1c(-c1ccc(Oc3ccccc3)cc1)nn2C1CCCN(C(=O)C=CCCCCOCCOCCOCCOCCOc2cccc3c2C(=O)N(C2CCC(=O)NC2=O)C3=O)C1 (centres unmarked) [IR-2],low sensitivity to the mutation
2,CC(C)(C=C(C#N)C(=O)N1CCCC(n2nc(-c3ccc(Oc4ccccc4)cc3)c3c(N)ncnc32)C1)CCCOCCOCCOCCOCCOc1cccc2c1C(=O)N(C1CCC(=O)NC1=O)C2=O (centres unmarked) [RC-3],severely impaired by the mutation
3,N#CC(=CCCCCOCCOCCOCCOCCOc1cccc2c1C(=O)N(C1CCC(=O)NC1=O)C2=O)C(=O)N1CCCC(n2nc(-c3ccc(Oc4ccccc4)cc3)c3c(N)ncnc32)C1 (centres unmarked) [RC-2],low sensitivity to the mutation
4,Nc1ncnc2c1c(-c1ccc(Oc3ccccc3)cc1)nn2C1CCCN(C(=O)CCCCCCOCCOCCOCCOCCOc2cccc3c2C(=O)N(C2CCC(=O)NC2=O)C3=O)C1 (centres unmarked) [NC-1],only mildly affected by the mutation
5,Nc1ncnc2c1c(-c1ccc(Oc3ccccc3)cc1)nn2C1CCCN(C(=O)C=CCOCCOCCOCCOCCOCCOc2cccc3c2C(=O)N(C2CCC(=O)NC2=O)C3=O)C1 (centres unmarked) [IR-1],low sensitivity to the mutation
